# Entries after “also recorded” stand apart in the source; their conditions may differ.
# Test system: microorganisms (e.g., bacteria, yeasts, fungi)
# Assay: Targeting peptide binding to target microorganisms (Table 3)
# Conditions: microorganism(s) the targeting peptide binds; binding in aqueous buffers depending on peptide solubility, preferably 1x PBS
row,Substance,Target(s)
1,PF-245 (MNDVKPVVQPKQTLKAFLVQLLSVRAGVYIKQNNQLPKTKG; Peptide with targeting and/or antimicrobial activity),S. epidermidis; also recorded: M. luteus; also recorded: P. aeruginosa; also recorded: A. baumannii
2,PF-246 (QPDEKAEFFDPSLDKVYRHPTFYHIPDGIEHM; Peptide with targeting and/or antimicrobial activity),S. mutans
3,PF-247 (ETAASETH; Peptide with targeting and/or antimicrobial activity),S. epidermidis
4,PF-248 (ILSKLWFWMINSLGVVLLVSYWLLAKWGVA; Peptide with targeting and/or antimicrobial activity),S. mutans; also recorded: S. epidermidis; also recorded: M. luteus; also recorded: E. coli; also recorded: P. aeruginosa; also recorded: A. baumannii
5,PF-253 (VRDDDS; Peptide with targeting and/or antimicrobial activity),S. epidermidis; also recorded: M. luteus
6,PF-254 (FIYGVGFVPHFWLWKWLFSPWIAWPLMLLGYYIWFLT; Peptide with targeting and/or antimicrobial activity),S. epidermidis; also recorded: M. luteus; also recorded: P. aeruginosa; also recorded: A. baumannii
7,PF-256 (EYFKQVYVKNEKIYSFWICKDLSPKEAAKRAEDILVKLK; Peptide with targeting and/or antimicrobial activity),S. epidermidis
8,PF-259 (LPFSKIGRRVSYKKKDVLKYEQSKTVLNTAQLATV; Peptide with targeting and/or antimicrobial activity),S. epidermidis; also recorded: P. aeruginosa; also recorded: A. baumannii
9,PF-262 (DPHSEIDVTRYCQLHHFTCQTMQISEREFHYLIETQ; Peptide with targeting and/or antimicrobial activity),S. mutans; also recorded: S. epidermidis; also recorded: M. luteus; also recorded: E. coli; also recorded: P. aeruginosa; also recorded: A. baumannii
10,PF-263 (NLKKCPC; Peptide with targeting and/or antimicrobial activity),S. epidermidis; also recorded: M. luteus; also recorded: A. baumannii
11,PF-265 (MKTLFFPLFLIIFVLIIQALDQSYQKKIGISKPQKHPEFMQ; Peptide with targeting and/or antimicrobial activity),S. epidermidis; also recorded: M. luteus; also recorded: A. baumannii
12,PF-266 (DQEKKNKTEESTEQ; Peptide with targeting and/or antimicrobial activity),S. mutans
13,PF-267 (SDDKRTD; Peptide with targeting and/or antimicrobial activity),M. luteus
14,PF-268 (EVLLSDLRPDIFSET; Peptide with targeting and/or antimicrobial activity),S. mutans
15,PF-275 (LVSGVANTVKNTAHTVGNTAKHAGHVAADTTVKATKKQQVK; Peptide with targeting and/or antimicrobial activity),S. mutans
16,PF-279 (SHIGFISISACLAVLLGIARLFVWTWVKFFA; Peptide with targeting and/or antimicrobial activity),S. mutans; also recorded: S. epidermidis; also recorded: M. luteus; also recorded: E. coli; also recorded: P. aeruginosa; also recorded: A. baumannii
17,PF-281 (SYNTYYNKLIHGQRTPDGM; Peptide with targeting and/or antimicrobial activity),S. mutans; also recorded: E. coli
18,PF-282 (QNNDTSAWCGSAHKNGNS; Peptide with targeting and/or antimicrobial activity),S. mutans
19,PF-284 (MRYITYSLIPRLLSKKVIHQQ; Peptide with targeting and/or antimicrobial activity),C. difficile
20,PF-285 (VPAKLLRVIDEIPE; Peptide with targeting and/or antimicrobial activity),S. mutans
21,PF-288 (IYQLLNIEYSEDD; Peptide with targeting and/or antimicrobial activity),S. mutans; also recorded: E. coli
22,PF-291 (DVDGAIESEL; Peptide with targeting and/or antimicrobial activity),S. mutans; also recorded: E. coli
23,PF-295 (NIQVYESECGNYIFKKSDESFLIDIFDKNGTH; Peptide with targeting and/or antimicrobial activity),C. difficile
24,PF-299 (LATKLKYEKEHKKM; Peptide with targeting and/or antimicrobial activity),B. subtilis
25,PF-300 (VKDVLLELFNKIIGA; Peptide with targeting and/or antimicrobial activity),B. subtilis; also recorded: C. difficile
26,PF-304 (LVKDTSDIKNDLNNIEIVTSKNSNDIAKLKSVK; Peptide with targeting and/or antimicrobial activity),S. mutans
27,PF-308 (QQYLILDRM; Peptide with targeting and/or antimicrobial activity),C. difficile

row,Substance,Target(s)
1,PF-309 (GIPGMTAAPAEENEQEENADEE; Peptide with targeting and/or antimicrobial activity),S. mutans; also recorded: E. coli
2,PF-311 (IDAVTKKKTTCMIRAPTKIPIAHTDN; Peptide with targeting and/or antimicrobial activity),C. difficile
3,PF-314 (ECLKKAIKSKALNKAFKIDVPDEVYDNLLMELEEYEK; Peptide with targeting and/or antimicrobial activity),S. mutans
4,PF-317 (LILVSDI; Peptide with targeting and/or antimicrobial activity),S. mutans
5,PF-320 (DSGYYALLENKEERVVWDGEVVANNIFNNLWIVVNKVKTG; Peptide with targeting and/or antimicrobial activity),S. mutans; also recorded: E. coli
6,PF-323 (ARESIEKSHVPVDATIVGVVDSFEVFDE; Peptide with targeting and/or antimicrobial activity),S. mutans
7,PF-324 (HFSLL; Peptide with targeting and/or antimicrobial activity),C. difficile
8,PF-325 (LTIDEKLRNHR; Peptide with targeting and/or antimicrobial activity),S. mutans; also recorded: E. coli
9,PF-326 (VIVGNLGAQKEKRNDTPISAKKDIMGDKTVRVRADLHH; Peptide with targeting and/or antimicrobial activity),S. mutans; also recorded: E. coli
10,PF-328 (NGNEKAFSEVENLVK; Peptide with targeting and/or antimicrobial activity),S. mutans
11,PF-329 (IGILFDKSVRKY; Peptide with targeting and/or antimicrobial activity),S. epidermidis
12,PF-333 (YMTKKLVEMAEQQMAGKSNR; Peptide with targeting and/or antimicrobial activity),S. mutans
13,PF-334 (QQYLILDRM; Peptide with targeting and/or antimicrobial activity),S. epidermidis; also recorded: C. difficile
14,PF-337 (YMTKKLVEMAERQMAGK; Peptide with targeting and/or antimicrobial activity),S. epidermidis
15,PF-338 (KGTSCPDQLSKAIRQSI; Peptide with targeting and/or antimicrobial activity),S. mutans
16,PF-340 (VKDVLLELFNKIIGA; Peptide with targeting and/or antimicrobial activity),S. mutans; also recorded: E. coli
17,PF-348 (ESASAAEWYNPNMNVKKAICMG; Peptide with targeting and/or antimicrobial activity),B. subtilis; also recorded: E. coli; also recorded: P. aeruginosa; also recorded: C. albicans; also recorded: E. faecalis; also recorded: C. jejuni
18,PF-351 (YLFFKGKKVAEEEATKDEVKR; Peptide with targeting and/or antimicrobial activity),S. mutans
19,PF-352 (RVKKIG; Peptide with targeting and/or antimicrobial activity),C. jeikeium
20,PF-359 (MTVMEDPGSEQRNKIQSPMKGEDFSALFGR; Peptide with targeting and/or antimicrobial activity),S. epidermidis and B. fragilis and P. aeruginosa and C. albicans and MRSA and E. faecalis and C. jeikeium
21,PF-361 (NQVTEGIRLLVE; Peptide with targeting and/or antimicrobial activity),S. epidermidis; also recorded: E. coli; also recorded: E. faecalis; also recorded: C. jejuni
22,PF-364 (LVNGIKI; Peptide with targeting and/or antimicrobial activity),S. epidermidis; also recorded: B. fragilis; also recorded: P. aeruginosa; also recorded: C. jeikeium; also recorded: C. jejuni
23,PF-365 (LYKQKIQLEEELEKLKDDRQ; Peptide with targeting and/or antimicrobial activity),S. epidermidis; also recorded: B. subtilis; also recorded: B. fragilis; also recorded: P. aeruginosa; also recorded: C. albicans
24,PF-367 (TKTPGTFTPGTGIQKTAVPL; Peptide with targeting and/or antimicrobial activity),B. subtilis
25,PF-368 (MLKQTA; Peptide with targeting and/or antimicrobial activity),C. jeikeium; also recorded: C. jejuni
26,PF-371 (TFIYNEF; Peptide with targeting and/or antimicrobial activity),S. epidermidis; also recorded: B. fragilis; also recorded: C. jejuni
27,PF-372 (KKQDKRIEDKYKRMKKGD; Peptide with targeting and/or antimicrobial activity),C. jeikeium; also recorded: C. jejuni
